Like-named read-outs stand apart in the source and are kept apart here.
Legend:
OCT2 = target: T1, OCT2 (Homo sapiens, UniProt O15244); assay: Inhibition of model substrate uptake in OCT2-overexpressing HEK293 cells; settings: for selectivity ratio at 5 min / inhibition at 5 min, 20 μM: OCT2-overexpressing HEK293 cells; for inhibition at 5 min, 20 μM / ASP+ inhibition [%] / N-Ethyllidocaine inhibition [%] / (S,S)-Ethambutol inhibition [%]: OCT2, 20 μM inhibitor
T1 sequence (O15244 1-555): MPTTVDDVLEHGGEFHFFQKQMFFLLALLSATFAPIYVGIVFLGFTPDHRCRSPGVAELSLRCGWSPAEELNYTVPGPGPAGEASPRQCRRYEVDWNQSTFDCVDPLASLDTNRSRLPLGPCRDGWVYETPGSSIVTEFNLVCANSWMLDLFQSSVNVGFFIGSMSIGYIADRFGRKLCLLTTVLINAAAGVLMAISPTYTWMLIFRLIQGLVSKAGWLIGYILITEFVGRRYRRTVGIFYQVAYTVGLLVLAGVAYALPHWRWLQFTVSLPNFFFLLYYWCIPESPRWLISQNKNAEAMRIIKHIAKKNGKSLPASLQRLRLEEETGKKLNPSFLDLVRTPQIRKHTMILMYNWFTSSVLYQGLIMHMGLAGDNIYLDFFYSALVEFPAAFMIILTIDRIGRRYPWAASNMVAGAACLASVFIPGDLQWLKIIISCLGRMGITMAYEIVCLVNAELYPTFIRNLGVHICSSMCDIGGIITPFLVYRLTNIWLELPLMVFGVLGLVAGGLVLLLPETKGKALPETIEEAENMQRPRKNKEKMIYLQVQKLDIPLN

OCT1 = target: T2, OCT1 (Homo sapiens, UniProt O15245); assay: Inhibition of model substrate uptake in OCT1-overexpressing HEK293 cells; assay type: cell-based; parameters: expressed in transfected cells; host or cells: HEK293; settings: for inhibition at 5 min, 20 μM / selectivity ratio at 5 min: OCT1-overexpressing HEK293 cells; for IC50: read-out: IC50; for selectivity ratio at 5 min: ratio of the IC50 values of both isomers, label = isomer named in the cell (as a rule the one with the higher IC50), read-out: Stereoselectivity (x-fold for the named isomer)
T2 sequence (O15245 1-554): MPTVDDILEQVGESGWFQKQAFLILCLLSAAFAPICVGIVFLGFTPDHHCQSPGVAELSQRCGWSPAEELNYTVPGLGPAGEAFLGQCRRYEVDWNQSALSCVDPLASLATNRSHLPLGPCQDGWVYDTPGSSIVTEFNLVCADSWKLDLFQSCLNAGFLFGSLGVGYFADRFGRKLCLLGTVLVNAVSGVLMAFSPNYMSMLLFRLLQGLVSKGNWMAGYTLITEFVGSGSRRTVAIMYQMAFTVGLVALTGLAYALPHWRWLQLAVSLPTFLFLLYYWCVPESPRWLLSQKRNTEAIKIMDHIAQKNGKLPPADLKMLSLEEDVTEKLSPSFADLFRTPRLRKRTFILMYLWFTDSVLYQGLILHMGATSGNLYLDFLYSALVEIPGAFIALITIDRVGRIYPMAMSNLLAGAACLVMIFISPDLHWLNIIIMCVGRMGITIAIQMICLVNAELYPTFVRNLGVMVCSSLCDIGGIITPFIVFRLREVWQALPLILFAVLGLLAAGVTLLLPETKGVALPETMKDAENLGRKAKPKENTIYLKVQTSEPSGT
Description: Koepsell and Gorbulev (University of Würzburg, Germany).
Fluorescence quantification was performed in technical duplicates.

OCT3 = target: T3, OCT3 (Homo sapiens, UniProt O75751); assay: Inhibition of model substrate uptake in OCT3-overexpressing HEK293 cells; assay type: cell-based
T3 construct: expressed in transfected cells; host or cells: HEK293
T3 sequence (O75751 1-556): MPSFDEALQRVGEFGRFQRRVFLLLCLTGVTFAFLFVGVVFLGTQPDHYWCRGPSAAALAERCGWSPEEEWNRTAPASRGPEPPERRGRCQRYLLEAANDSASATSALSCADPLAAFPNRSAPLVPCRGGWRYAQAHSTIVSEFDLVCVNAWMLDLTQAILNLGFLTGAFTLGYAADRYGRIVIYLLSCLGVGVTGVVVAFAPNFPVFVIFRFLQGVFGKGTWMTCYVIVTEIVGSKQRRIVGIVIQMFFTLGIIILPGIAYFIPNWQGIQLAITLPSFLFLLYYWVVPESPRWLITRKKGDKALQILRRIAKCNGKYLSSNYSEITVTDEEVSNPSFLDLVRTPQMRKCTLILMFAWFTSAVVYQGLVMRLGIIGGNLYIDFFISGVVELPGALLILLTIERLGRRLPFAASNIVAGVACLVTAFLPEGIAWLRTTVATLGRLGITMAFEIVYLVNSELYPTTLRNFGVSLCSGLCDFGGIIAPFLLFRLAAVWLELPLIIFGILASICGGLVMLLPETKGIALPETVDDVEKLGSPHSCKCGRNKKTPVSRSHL
Procedure, shortened: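 IC50 values were fitted with a Hill equation from net uptake, calculated as uptake in overexpressing HEK293 cells minus empty-vector control uptake. Cells were exposed for 5 min to 2 μM model substrate alone, with 20 μM inhibitor, or with a concentration series. Uptake was quantified by ASP^+ fluorescence or LC–MS/MS after lysis in 80% acetonitrile.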

[1] = IC50, OCT2, Table S5, 2 μM ASP+ as model substrate, 5 min
[2] = human, pH 7.4, probe (S,S)-ethambutol (2 μM), (S,S)-Ethambutol inhibition [%], 2 μM (S,S)-ethambutol, 5 min
[3] = human, pH 7.4, probe ASP+ (2 μM), ASP+ inhibition [%], 2 μM ASP+, 5 min
[4] = human, pH 7.4, probe N-ethyllidocaine (2 μM), N-Ethyllidocaine inhibition [%], 2 μM N-ethyllidocaine, 5 min
[5] = human, pH 7.4, probe (S,S)-ethambutol (2 μM), (S,S)-Ethambutol inhibition [%], OCT1, 20 μM inhibitor, 2 μM (S,S)-ethambutol, 5 min
[6] = human, pH 7.4, probe ASP+ (2 μM), OCT1, 20 μM inhibitor, 2 μM ASP+, 5 min, mean of three experiments, read-out: ASP+ inhibition [%]
[7] = human, pH 7.4, probe sumatriptan (2 μM), OCT1, 20 μM inhibitor, 2 μM sumatriptan, 5 min, read-out: Sumatriptan inhibition [%]
[8] = HEK293, 5 min, read-out: (S)-Zolmitriptan inhibition [%], OCT3, 20 μM inhibitor, 2 μM (S)-zolmitriptan, 5 min
[9] = HEK293, 5 min, read-out: (S,S)-Ethambutol inhibition [%], OCT3, 20 μM inhibitor, 2 μM (S,S)-ethambutol, 5 min
[10] = HEK293, OCT3, 20 μM inhibitor, 2 μM ASP+, 5 min, read-out: ASP+ inhibition [%]
[11] = HEK293, 5 min, read-out: (S)-Zolmitriptan inhibition [%]
[12] = HEK293, 5 min, read-out: (S,S)-Ethambutol inhibition [%]
[13] = OCT3, 20 μM inhibitor, 2 μM (S)-zolmitriptan, 5 min
[14] = OCT3, 20 μM inhibitor, 2 μM ASP+, 5 min
[15] = OCT1, 20 μM inhibitor, 2 μM ASP+, 5 min, mean of three experiments
[16] = OCT1, 20 μM inhibitor, 2 μM sumatriptan, 5 min
[17] = OCT1, 20 μM inhibitor, 2 μM (S,S)-ethambutol, 5 min
[18] = OCT3, 20 μM inhibitor, 2 μM (S,S)-ethambutol, 5 min

Structure (SMILES)	inhibition at 5 min, 20 μM (OCT2; [2]) [%]	inhibition at 5 min, 20 μM (OCT2; [3]) [%]	inhibition at 5 min, 20 μM (OCT2; [4]) [%]	inhibition at 5 min, 20 μM (OCT1; [5]) [%]	inhibition at 5 min, 20 μM (OCT1; [6]) [%]	inhibition at 5 min, 20 μM (OCT1; [7]) [%]	inhibition at 20 µM (OCT3; [10]) [%]	ASP+ inhibition [%] (OCT2; 2 μM ASP+, 5 min)	N-Ethyllidocaine inhibition [%] (OCT2; 2 μM N-ethyllidocaine, 5 min)	(S)-Zolmitriptan inhibition [%] (OCT3; [13])	ASP+ inhibition [%] (OCT3; [14])	ASP+ inhibition [%] (OCT1; [15])	Sumatriptan inhibition [%] (OCT1; [16])	(S,S)-Ethambutol inhibition [%] (OCT2; 2 μM (S,S)-ethambutol, 5 min)	(S,S)-Ethambutol inhibition [%] (OCT1; [17])	(S,S)-Ethambutol inhibition [%] (OCT3; [18])	also measured
CC(C)(C)NC[C@@H](O)COc1nsnc1N1CCOCC1 [(R)-Timolol]	12	37.2	24.7	32.1	12.9	55	28.6	–	–	–	–	–	–	–	–	–	IC50 (OCT2; [1]): 121 µM; selectivity ratio at 5 min (OCT2; human, pH 7.4): 2; inhibition at 20 µM (OCT3; [8]): 7.6%; inhibition at 20 µM (OCT3; [9]): 8.2%
COc1ccc([C@H](CN(C)C)C2(O)CCCCC2)cc1 [(R)-Venlafaxine]	–	–	–	–	–	–	-2.8	29.1	23.1	–	–	–	–	–	–	–	Sumatriptan inhibition [%] (OCT1; human, pH 7.4): 70.8%; inhibition at 20 µM (OCT3; [11]): 12.6%; inhibition at 20 µM (OCT3; [12]): 12.3%
CCC(CO)NCCNC(CC)CO [(R,R)-Ethambutol]	–	34.4	7.7	–	7.7	17.9	–	–	–	-3.7	9.1	–	–	–	–	–	–
CCC(CO)NCCNC(CC)CO [(R,S)-Ethambutol]	–	–	–	–	–	–	–	26.0	6.8	-8.0	2.6	4.0	10.2	–	–	–	–
O=C(OC1C[N+]2(CCCOc3ccccc3)CCC1CC2)C(O)(c1cccs1)c1cccs1 [(S)-Aclidinium]	–	–	–	–	–	–	–	101.8	57.3	53.3	37.7	78.8	93.8	2.7	101.4	67.7	–
CCCCN1CCCC[C@H]1C(=O)Nc1c(C)cccc1C [(S)-Bupivacaine]	38.5	43.1	50.2	50.6	23.5	43.9	24.3	–	–	–	–	–	–	–	–	–	IC50 (OCT2; IC50 [μM], OCT2, Table 1): 48.4 µM; selectivity ratio at 5 min (OCT2; human, pH 7.4): 2.3; IC50 (OCT1; OCT1, Table 1): 18.7 µM; selectivity ratio at 5 min (OCT1; human, pH 7.4, OCT1, Table S5): 1.8; inhibition at 20 µM (OCT3; [8]): 37.2%; inhibition at 20 µM (OCT3; [9]): 33.4%
COc1ccccc1OCCNC[C@H](O)COc1cccc2[nH]c3ccccc3c12 [(S)-Carvedilol]	8.7	94.9	48.8	100	74.5	96.5	16.3	–	–	–	–	–	–	–	–	–	inhibition at 20 µM (OCT3; [8]): 32.8%; inhibition at 20 µM (OCT3; [9]): 49.5%
N[C@H]1CONC1=O [(S)-Cycloserine]	–	–	–	–	–	–	–	14.6	14.6	6.3	19.3	-2.6	35.9	0.8	0.3	12.2	–
C#CCN(C)[C@@H](C)Cc1ccccc1 [(S)-Deprenyl]	–	–	–	–	–	–	–	88.0	47.7	–	9.6	26.1	–	–	–	–	IC50 (OCT2; [1]): 3.4 µM; selectivity ratio (OCT2; human, pH 7.4): 1.4; Sumatriptan inhibition [%] (OCT1; human, pH 7.4): 68.6%; (S)-Zolmitriptan inhibition [%] (OCT3): 11.5%; (S,S)-Ethambutol inhibition [%] (OCT3): 20.9%
CN(C)CCO[C@@](C)(c1ccccc1)c1ccccn1 [(S)-Doxylamine]	–	–	–	–	–	–	–	64.3	-17.1	33.8	7.4	51.7	88.2	26.3	86.5	35.8	IC50 (OCT1; OCT1, Table S5, 2 μM ASP+ or ethambutol as model substrate, 5 min): 32.2 µM; selectivity ratio at 5 min (OCT1; human, pH 7.4, OCT1, Table S5): 1.4
OC[C@@H](O)CN1CCN(c2ccccc2)CC1 [(S)-Dropropizine]	–	–	–	–	–	–	–	51.1	7.5	-17.1	29.1	24.6	30.4	20.5	27.4	6.7	IC50 (OCT2; [1]): 55.6 µM
CNCC[C@H](Oc1cccc2ccccc12)c1cccs1 [(S)-Duloxetine]	19.4	70.2	46.1	86.9	43.3	88.5	–	–	–	–	–	–	–	–	–	–	IC50 (OCT2; IC50): 16.6 µM; inhibition at 20 µM (OCT3; [11]): 19.6%; inhibition at 20 µM (OCT3; [12]): 25.2%; inhibition at 20 µM (OCT3; HEK293, read-out: ASP+ inhibition [%]): 2.4%
CNCC[C@H](Oc1ccc(C(F)(F)F)cc1)c1ccccc1 [(S)-Fluoxetine]	–	–	–	–	–	–	–	56.6	28.7	–	–	47.7	82.3	6.4	78.6	–	(S)-Zolmitriptan inhibition [%] (OCT3): 13.8; (S,S)-Ethambutol inhibition [%] (OCT3): 12.3; ASP+ inhibition [%] (OCT3): -3.1

From paper PMC10698726 (Molecular Pharmaceutics, 2023)
